Test results as given in PubChem BioAssay AID179 (DTP/NCI, 2004).
Activity calls are given as the source filed them.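 The calls were made as follows: active = compounds giving half or more protection of infected cells from virus-caused growth loss, again on retest; inactive = the rest.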

System: CEM cells HIV-1 protection, formazan growth assay
Test: NCI AIDS Antiviral Assay
Settings: for IC50: measured here: growth of uninfected CEM cells
Procedure, shortened: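 Human CEM cells, uninfected and HIV-1-infected, exposed to five drug concentrations; growth measured by soluble formazan assay and scored as percent protection from infection, with protecting compounds retested.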

Row | SMILES | EC50 [µM] | IC50 [µM] | outcome
1 | COC1/C=C/OC2(C)Oc3c(C)c(O)c4c(O)c(c(/C=N/N5CCC(N6CCCCC6)CC5)c(O)c4c3C2=O)NC(=O)C(C)=C/C=C/C(C)C(O)C(C)C(O)C(C)C(OC(C)=O)C1C (stereo not given) | > 75.9 | > 75.9 | –
2 | COc1ccc(C2CC(c3ccccc3)=Nc3ccccc3S2)cc1 (stereo not given) | > 51.3 | 27.5 | –
3 | CCOC(=O)C(=Cc1ccc(Br)cc1)C(=O)OCC | > 57.5 | 11.7 | –
4 | O=C1c2c(O)cc(O)c(OC3OC(CO)C(O)C(O)C3O)c2OC(c2ccc(O)c(O)c2)C1O (stereo not given) | > 513 | 57.5 | –
5 | COc1ccc(-c2cc(-c3ccccc3)n(C3OCC(OC(C)=O)C(OC(C)=O)C3OC(C)=O)c(=S)c2C#N)cc1 (stereo not given) | > 200 | 43.7 | –
6 | CSC1=Nc2cc3c(cc2C(=O)N2C[C@H](O)CC12)OCO3 (stereo not given in full) | > 200 | 110 | –
7 | O=c1oc2ccccc2c(O)c1/C=N\c1nc(-c2ccc(O)c(O)c2)cs1 | > 200 | 3.24 | –
8 | CCc1cc(-c2ccc(OC)cc2)c(C#N)c(=S)n1C1OC(CO)C(O)C(O)C1O (stereo not given) | > 200 | 126 | –
9 | CCC(=O)c1c(O)c2ccccc2oc1=O | > 200 | > 100 | –
10 | CC1(C)OC[C@@H]([C@H](C=O)OCc2ccccc2)O1 | > 200 | > 200 | –
11 | N#Cc1c(N2CCCC2)nsc1Nc1ccccc1 | > 200 | > 200 | –
12 | NCc1ccc(-c2ccc(-c3ccc(-c4ccc(CN)s4)s3)s2)s1 | > 100 | 72.4 | –
13 | Cn1c(=O)c2[nH]c(=O)c(C(CO)C(=O)c3ccccc3)nc2n(C)c1=O (stereo not given) | > 200 | 9.55 | –
14 | O=S1Nc2cccc(C(F)(F)F)c2S1 (stereo not given) | > 57.5 | > 57.5 | –
15 | CC(C)CCCC(C)[C@H]1CCC2[C@H]3C(CC[C@@]21C)[C@@]1(C)CCC=C[C@]12C[C@@H]2[C@@H]3O (stereo not given in full) | – | – | inactive
16 | C/C=C/COC(=O)CO[N+](=O)[O-] | – | – | inactive
17 | Cc1nc2c(=O)n(C)c(=O)n(C)c2nc1CCC(=O)O | > 200 | > 200 | –
18 | C=CC[C@@]1(C)CCCCCCCCC[C@@](C)(CC=C)C1=O | > 200 | 115 | –
19 | CCOCC1c2ccccc2CCN1Cc1c[nH]c2ccccc12 (stereo not given) | > 200 | 19.5 | –
20 | C=CC(C)(C)c1c(OC(C)=O)cc2oc3c(OC(C)=O)c(OC(C)=O)cc(CC=C(C)C)c3c(=O)c2c1O | > 200 | 120 | –
21 | Cc1ccc(-c2nnc3s/c(=C\c4ccc(N(C)C)cc4)c(=O)n23)cc1 | > 27.5 | 16.2 | –

Row | SMILES | EC50 [µM] | IC50 [µM] | outcome
22 | Cc1c(C)c2c(c(N)c1C#N)C(=O)N(Cc1ccc(S(N)(=O)=O)cc1)C2=O | 69.2 | > 200 | –
23 | CC(=O)CC(N)=O | – | – | inactive
24 | O=C(Nc1ccccc1)c1cc2ccccc2oc1=O | > 100 | > 100 | –
25 | CCC(=O)C1(c2cccc(OC)c2)CCN(C)CC1 | > 832 | 457 | –
26 | CC(Cc1ccc2c(c1)OCO2)N(C)C(=O)C1=CCN(C)CC1 (stereo not given) | > 200 | > 200 | –
27 | C=CCC(C)C(=O)CP1(=O)OC(C)CCN1C(C)(C)C (stereo not given) | – | – | inactive
28 | CCOC(=O)c1c2cccccc-2nc1Nc1ccccc1N1C=CC(C)C(C(=O)OC)=C1C(=O)OC (stereo not given) | > 200 | 129 | –
29 | CCc1cc(C(N)=S)ccn1 | > 200 | > 200 | –
30 | N#C/C(=C\N1CCNC1=S)C(=O)c1ccc2ccccc2c1 | > 200 | 151 | –
31 | NC1=NCC(c2ccc(Cl)cc2)O1 (stereo not given) | > 200 | 50.1 | –
32 | NC(=O)NNC(O)(C(F)(F)F)C(F)(F)F | > 200 | > 200 | –
33 | O=c1oc2ccccc2c(O)c1/C=N/C(=S)NCCc1ccccc1 | > 200 | > 200 | –
34 | Cc1cn(C2CCC(CO)(C(F)(F)F)O2)c(=O)[nH]c1=O (stereo not given) | > 200 | > 200 | –
35 | CCOC(=O)c1oc2cc(O)cc(O)c2c(=O)c1-c1ccc(OC)cc1 | > 200 | 21.9 | –
36 | CN(C)CCSC(=Nc1ccccc1)N1CCCCC1 | > 123 | 20.9 | –
37 | NC1(CCCCCCCCCCC(=O)O)CNCCNCCNCCNC1 | > 437 | 3.47 | –
38 | [N-]=[N+]=NC1C(O)C(O)C(O)C(O)C1O (stereo not given) | > 603 | > 603 | –
39 | CC(=O)C(=[N+]=[N-])C(=O)OC(C)(C)C#N | > 200 | > 200 | –
40 | COc1c(OC(C)=O)c(OC(C)=O)cc2c1-c1ccc(OC)c(=O)cc1C(NC(C)=O)CC2 (stereo not given) | > 0.2 | 0.0115 | –
41 | O=C(O)c1c(CC(Cc2ccccc2)C(=O)O)ccc2c1CCC2 (stereo not given) | > 200 | > 200 | –
42 | Cc1nc(C(N)=S)sc1C(=O)C/C(=N/N)C(=O)Nc1ccc(Cl)cc1 | > 240 | > 240 | –

Row | SMILES | EC50 [µM] | IC50 [µM] | outcome
43 | CC(=O)OCC1OC(n2c(C)cc(-c3cccc4ccccc34)c(C#N)c2=S)C(OC(C)=O)C(OC(C)=O)C1OC(C)=O (stereo not given) | > 200 | 21.4 | –
44 | Cc1ccc2c(c1)C(=O)N(N(C)C)CC(=O)N2 | – | – | inactive
45 | O=C(CN1CCOCC1)c1ccc2c(c1)oc(=O)n2CCN1CCCC1 | > 200 | 95.5 | –
46 | CCOC(=O)C(C(O)c1ccc([N+](=O)[O-])cc1)P(=O)(OCC)OCC (stereo not given) | > 661 | 93.3 | –
47 | [N-]=[N+]=CC(=O)CCC(=O)N(c1ccccc1)c1ccccc1 | 135 | 195 | –
48 | COc1ccc2nc3cc(Cl)ccc3c(NCCCN3CCN(CCCNc4ccc5nnn6c7ccccc7c(=O)c4c56)CC3)c2c1 | 0.00251 | 0.00794 | –
49 | S=C1N(c2ccc(Br)cc2)C2=Nc3ccccc3SC(=C2N=Nc2ccccc2Cl)N1c1ccc(Cl)cc1 | > 34.7 | 6.76 | –
50 | CC[n+]1c2ccc(C)cc2nc2c3ccccc3c(N)cc21 | > 200 | 1.02 | –
51 | c1ccc2sc(-c3c4ccccc4cc4c3ccc3ccccc34)cc2c1 | > 200 | > 200 | –
52 | CC1=CC(C)(C)Nc2ccc(OC(=O)/C=C(C)/C=C/C=C(C)/C=C/C3=C(C)CCCC3(C)C)cc21 | > 200 | 27.5 | –
53 | CN=C(NC)NCc1ccccc1 | > 200 | 178 | –
54 | O=C1CS(=O)(=O)C(c2ccccc2)N1N1C(=O)CS(=O)(=O)C1c1ccccc1 (stereo not given) | > 200 | > 200 | –
55 | O=C(O)CN(CCOCCOCCN(CC(=O)O)CC(=O)O)CC(=O)O | > 95.5 | 3.02 | –
56 | COC(=O)C(CCCCNC(=O)CNC(=O)OCc1ccccc1)NC(=O)C(CCCCNC(=O)CNC(=O)OCc1ccccc1)NC(=O)OCc1ccccc1 (stereo not given) | > 100 | 66.1 | –
57 | C=C(C)C(=O)NC(N)=NC#N | > 1620 | 28.8 | –
58 | COc1cc(C=Nc2ccc(Oc3ccc(Cl)cc3)c(Cl)c2)cc(OC)c1OC | > 200 | 30.9 | –
59 | Cc1n(CC(C)C)c2c([n+]1CC(=O)c1ccc([N+](=O)[O-])cc1)C(=O)c1ccccc1C2=O | > 4.9 | 0.0288 | –
60 | O=C1/C(=C/c2ccc3c(c2)OCO3)CCC/C1=C\c1ccc2c(c1)OCO2 | > 7.59 | > 7.59 | –
61 | COC(=O)c1c(C(=O)OC)c(C(=O)OC)c(C(=O)OC)c1C(=O)OC | – | – | inactive
62 | C=C(C)C12CC3/C(=N\O)C(C1)C(C)C(/C3=N\O)[C@@]2(C)O (stereo not given in full) | > 200 | > 200 | –
63 | Nc1c(N=Nc2ccc(-c3ccc(N=Nc4cc(S(=O)(=O)O)c5ccccc5c4O)cc3)cc2)cc(S(=O)(=O)O)c2ccccc12 | 9.12 | > 100 | –
